Measured values published in DBAASP.
≈ marks a conversion by molar mass, not a printed value.

Experiments:
Assay in all cases: ≥ marks a high value that may be exact or a test limit, other limits are often not marked, values filed in µg/mL are converted to µM
[1] = tested on: Candida albicans CGMCC 2.2086
Candida albicans = tested on: Candida albicans
[2] = tested on: Candida parapsilosis CGMCC 2.3989
[3] = tested on: Candida tropicalis CGMCC 2.1975
[4] = tested on: Enterococcus faecalis ATCC 29212
Escherichia coli UB1005 = tested on: Escherichia coli UB1005
[5] = tested on: Pseudomonas aeruginosa ATCC 27853
[6] = tested on: Pseudomonas aeruginosa PAO1
[7] = tested on: Salmonella enterica subsp. enterica serovar Choleraesuis CVCC 503
[8] = tested on: Salmonella enterica subsp. enterica serovar Typhimurium ATCC 14028
[9] = tested on: Salmonella enterica subsp. enterica serovar Typhimurium C77-31
[10] = tested on: Staphylococcus aureus ATCC 25923
[11] = tested on: Staphylococcus aureus ATCC 29213
[12] = tested on: Staphylococcus aureus ATCC 43300
[13] = tested on: Staphylococcus epidermidis ATCC 12228
[14] = tested on: Pseudomonas aeruginosa H1001
[15] = tested on: Candida albicans ATCC 10231
[16] = tested on: Cryptococcus neoformans ATCC 32045
[17] = tested on: Escherichia coli ATCC 2592
[18] = tested on: Pseudomonas aeruginosa ATCC 10145
[19] = tested on: Staphylococcus aureus ATCC 33591
Escherichia coli BW25113 = tested on: Escherichia coli BW25113
Escherichia coli J2210 = tested on: Escherichia coli J2210
Escherichia coli JJ2489 = tested on: Escherichia coli JJ2489
Escherichia coli JW0013 = tested on: Escherichia coli JW0013
[20] = tested on: Escherichia coli JW0368 ΔsbmA
[21] = tested on: Escherichia coli JW2778 ΔygdD
Escherichia coli MC1041 = tested on: Escherichia coli MC1041
[22] = tested on: Salmonella enterica subsp. enterica serovar Enteritidis MH91989
[23] = tested on: Salmonella typhimurium SL1344

Compound CC(C)C[C@H](NC(=O)[C@H](CCCCN)NC(=O)[C@H](CCCCN)NC(=O)[C@H](CC(C)C)NC(=O)[C@H](CCCN=C(N)N)NC(=O)[C@H](CS)NC(=O)[C@H](C)NC(=O)[C@H](CC(C)C)NC(=O)[C@H](CCCCN)NC(=O)[C@H](CCCCN)NC(=O)[C@@H](N)CC(C)C)C(=O)N[C@@H](C)C(=O)N[C@@H](CS)C(=O)N[C@@H](CCCN=C(N)N)C(N)=O [LKKLACRLKKLACR] has an MIC [1] of no less than 64 µM, an MIC (Candida albicans) of 45.3 µM (≈ 74.4 µg/mL) and an MIC [2] of no less than 64 µM. The MIC [3] was 8 µM (≈ 13.1 µg/mL), the MIC [4] was greater than 64 µM and the MIC (Escherichia coli UB1005) was no less than 32 µM. It also gave an MIC [5] of 32 µM (≈ 52.6 µg/mL), an MIC [6] of 16 µM (≈ 26.3 µg/mL) and an MIC [7] of no less than 32 µM. The MIC [8] was 64 µM (≈ 105 µg/mL), the MIC [9] was no less than 32 µM and the MIC [10] was greater than 64 µM. It also gave an MIC [11] of 64 µM (≈ 105 µg/mL), an MIC [12] of 64 µM (≈ 105 µg/mL) and an MIC [13] greater than 64 µM.

Compound CC[C@H](C)[C@H](NC(=O)[C@H](CCCN=C(N)N)NC(=O)[C@H](CCCN=C(N)N)NC(=O)[C@@H]1CCCN1C(=O)[C@H](CCCN=C(N)N)NC(=O)[C@H](CCCN=C(N)N)NC(=O)[C@@H]1CCCN1C(=O)[C@H](CCCN=C(N)N)NC(=O)[C@@H]1CCCN1C(=O)[C@H](CC(C)C)NC(=O)[C@H](Cc1ccc(O)cc1)NC(=O)[C@@H]1CCCN1C(=O)[C@@H]1CCCN1C(=O)[C@H](CCCCN)NC(=O)[C@H](CC(=O)O)NC(=O)[C@@H](N)C(C)C)C(=O)N[C@@H](Cc1ccc(O)cc1)C(=O)N[C@@H](CC(N)=O)C(=O)N[C@@H](CCCN=C(N)N)C(=O)NCC(=O)O [VDKPPYLPRPRRPRRIYNRG] has an MIC [14] of 0.0878 µM (≈ 0.22 µg/mL).

C[C@H](NC(=O)[C@H](CCCCN)NC(=O)[C@H](Cc1ccccc1)NC(=O)[C@H](C)NC(=O)[C@H](CCCCN)NC(=O)[C@H](Cc1ccccc1)NC(=O)[C@H](C)NC(=O)[C@H](CCCCN)NC(=O)[C@H](Cc1ccccc1)NC(=O)[C@H](C)NC(=O)[C@H](CCCCN)NC(=O)[C@H](Cc1ccccc1)NC(=O)[C@H](C)NC(=O)[C@H](CCCCN)NC(=O)[C@H](Cc1ccccc1)NC(=O)[C@H](C)NC(=O)[C@H](CCCCN)NC(=O)[C@@H](N)Cc1ccccc1)C(=O)O [FKAFKAFKAFKAFKAFKA] showed an MIC [15] of 169 µM (≈ 354 µg/mL), an MIC [16] of 2.7 µM (≈ 5.66 µg/mL) and an MIC [17] of 21.2 µM (≈ 44.5 µg/mL). For the same compound, the MIC [18] was no less than 47.7 µM and the MIC [19] was no less than 238 µM.

CC(C)C[C@H](NC(=O)[C@H](CCCN=C(N)N)NC(=O)[C@@H]1CCCN1C(=O)[C@H](CCCN=C(N)N)NC(=O)[C@@H]1CCCN1C(=O)[C@@H]1CCCN1C(=O)[C@H](CCCN=C(N)N)NC(=O)[C@@H]1CCCN1C(=O)[C@H](CCC(N)=O)NC(=O)[C@@H]1CCCN1C(=O)[C@H](CCCCN)NC(=O)[C@H](Cc1ccc(O)cc1)NC(=O)[C@@H](NC(=O)[C@@H]1CCCN1C(=O)[C@H](CCCCN)NC(=O)[C@H](CC(N)=O)NC(=O)[C@H](CC(N)=O)NC(=O)CN)C(C)C)C(=O)O [GNNKPVYKPQPRPPRPRL] was tested, and the MIC (Escherichia coli BW25113) was 0.096 µM (≈ 0.203 µg/mL), the MIC (Escherichia coli J2210) was 0.267 µM (≈ 0.565 µg/mL) and the MIC (Escherichia coli JJ2489) was 0.252 µM (≈ 0.533 µg/mL). For the same compound, the MIC (Escherichia coli JW0013) was 0.096 µM (≈ 0.203 µg/mL), the MIC [20] was 0.192 µM (≈ 0.406 µg/mL) and the MIC [21] was 0.192 µM (≈ 0.406 µg/mL). For the same compound, the MIC (Escherichia coli MC1041) was 0.192 µM (≈ 0.406 µg/mL), the MIC [22] was 0.133 µM (≈ 0.281 µg/mL) and the MIC [23] was 0.192 µM (≈ 0.406 µg/mL).

CC[C@H](C)[C@H](NC(=O)[C@H](CCCN=C(N)N)NC(=O)[C@H](CCCN=C(N)N)NC(=O)[C@@H]1CCCN1C(=O)[C@@H]1CCCN1C(=O)[C@H](CCCN=C(N)N)NC(=O)[C@@H]1CCCN1C(=O)[C@H](CCCN=C(N)N)NC(=O)[C@@H]1CCCN1C(=O)[C@H](CC(C)C)NC(=O)[C@H](Cc1ccc(O)cc1)NC(=O)[C@@H]1CCCN1C(=O)[C@@H]1CCCN1C(=O)[C@H](CCCCN)NC(=O)[C@H](CC(=O)O)NC(=O)[C@@H](N)C(C)C)C(=O)N[C@@H](Cc1ccc(O)cc1)C(=O)N[C@@H](CC(N)=O)C(=O)N[C@@H](CCCCN)C(=O)NCC(=O)O [VDKPPYLPRPRPPRRIYNKG] was tested, and the MIC [14] was 0.107 µM (≈ 0.26 µg/mL).

Compound CC[C@H](C)[C@H](NC(=O)[C@H](CCCN=C(N)N)NC(=O)[C@H](CCCN=C(N)N)NC(=O)[C@@H]1CCCN1C(=O)[C@@H]1CCCN1C(=O)[C@H](CCCN=C(N)N)NC(=O)[C@@H]1CCCN1C(=O)[C@H](CCCN=C(N)N)NC(=O)[C@@H]1CCCN1C(=O)[C@H](CC(C)C)NC(=O)[C@H](Cc1ccc(O)cc1)NC(=O)[C@@H]1CCCN1C(=O)[C@@H]1CCCN1C(=O)[C@H](CCCCN)NC(=O)[C@H](CC(=O)O)NC(=O)[C@@H](N)C(C)C)C(=O)N[C@@H](Cc1ccc(O)cc1)C(=O)N[C@@H](CS)C(=O)N[C@@H](CCCN=C(N)N)C(=O)NCC(=O)O [VDKPPYLPRPRPPRRIYCRG] has an MIC [14] of 0.0575 µM (≈ 0.14 µg/mL).

With C[C@H](NC(=O)[C@H](Cc1ccccc1)NC(=O)[C@H](CCCN=C(N)N)NC(=O)[C@H](CCCN=C(N)N)NC(=O)[C@H](C)NC(=O)[C@H](Cc1ccccc1)NC(=O)[C@H](CCCN=C(N)N)NC(=O)[C@H](CCCN=C(N)N)NC(=O)[C@H](C)NC(=O)[C@H](Cc1ccccc1)NC(=O)[C@H](CCCN=C(N)N)NC(=O)[C@H](CCCN=C(N)N)NC(=O)[C@H](C)NC(=O)[C@H](Cc1ccccc1)NC(=O)[C@H](CCCN=C(N)N)NC(=O)[C@H](CCCN=C(N)N)NC(=O)[C@H](C)NC(=O)[C@H](Cc1ccccc1)NC(=O)[C@H](CCCN=C(N)N)NC(=O)[C@H](CCCN=C(N)N)NC(=O)[C@H](C)NC(=O)[C@H](Cc1ccccc1)NC(=O)[C@H](CCCN=C(N)N)NC(=O)[C@H](CCCN=C(N)N)NC(=O)[C@H](C)NC(=O)[C@H](Cc1ccccc1)NC(=O)[C@@H](N)CCCN=C(N)N)C(=O)N[C@@H](CCCN=C(N)N)C(=O)O [RFARRFARRFARRFARRFARRFARRFAR] the MIC [15] was 94.7 µM (≈ 354 µg/mL), the MIC [16] was 23.6 µM (≈ 88 µg/mL) and the MIC [17] was 11.9 µM (≈ 44.5 µg/mL). It also gave an MIC [18] of 16.6 µM (≈ 62 µg/mL) and an MIC [19] of no less than 47.4 µM.

With C[C@H](NC(=O)[C@H](CCCCN)NC(=O)[C@H](Cc1ccccc1)NC(=O)[C@H](C)NC(=O)[C@H](CCCCN)NC(=O)[C@H](Cc1ccccc1)NC(=O)[C@H](C)NC(=O)[C@H](CCCCN)NC(=O)[C@H](Cc1ccccc1)NC(=O)[C@H](C)NC(=O)[C@H](CCCCN)NC(=O)[C@H](Cc1ccccc1)NC(=O)[C@H](C)NC(=O)[C@H](CCCCN)NC(=O)[C@H](Cc1ccccc1)NC(=O)[C@H](C)NC(=O)[C@H](CCCCN)NC(=O)[C@H](Cc1ccccc1)NC(=O)[C@H](C)NC(=O)[C@H](CCCCN)NC(=O)[C@H](Cc1ccccc1)NC(=O)[C@H](C)NC(=O)[C@H](CCCCN)NC(=O)[C@H](Cc1ccccc1)NC(=O)[C@H](C)NC(=O)[C@H](CCCCN)NC(=O)[C@@H](N)Cc1ccccc1)C(=O)O [FKAFKAFKAFKAFKAFKAFKAFKAFKA] the MIC [15] was 113 µM (≈ 354 µg/mL), the MIC [16] was 28.1 µM (≈ 88 µg/mL) and the MIC [17] was 14 µM (≈ 43.8 µg/mL). The MIC [18] was 6.38 µM (≈ 20 µg/mL) and the MIC [19] was 14 µM (≈ 43.8 µg/mL).

Work on CC(C)C[C@H](NC(=O)[C@H](CCCN=C(N)N)NC(=O)[C@@H]1CCCN1C(=O)[C@H](CCCN=C(N)N)NC(=O)[C@@H]1CCCN1C(=O)[C@@H]1CCCN1C(=O)[C@H](CCCN=C(N)N)NC(=O)[C@@H]1CCCN1C(=O)[C@H](CCC(N)=O)NC(=O)[C@@H]1CCCN1C(=O)[C@H](CCCCN)NC(=O)[C@H](Cc1ccc(O)cc1)NC(=O)[C@@H](NC(=O)[C@@H]1CCCN1C(=O)[C@H](CCCN=C(N)N)NC(=O)[C@H](CC(N)=O)NC(=O)[C@H](CC(N)=O)NC(=O)CN)C(C)C)C(=O)O [GNNRPVYKPQPRPPRPRL] yielded an MIC (Escherichia coli BW25113) of 0.067 µM (≈ 0.144 µg/mL), an MIC (Escherichia coli J2210) of 0.252 µM (≈ 0.54 µg/mL) and an MIC (Escherichia coli JJ2489) of 0.133 µM (≈ 0.285 µg/mL). The MIC (Escherichia coli JW0013) was 0.062 µM (≈ 0.133 µg/mL), the MIC [20] was 0.096 µM (≈ 0.206 µg/mL) and the MIC [21] was 0.133 µM (≈ 0.285 µg/mL). The MIC (Escherichia coli MC1041) was 0.133 µM (≈ 0.285 µg/mL), the MIC [22] was 0.096 µM (≈ 0.206 µg/mL) and the MIC [23] was 0.192 µM (≈ 0.411 µg/mL).
